{
  "source": "patent US10945932B2",
  "about": "“Prebiotic oral care compositions containing carboxylic acids” (COLGATE-PALMOLIVE COMPANY, priority 2013, dated 2021)",
  "key": {"[1]": {"test_system": "beneficial oral bacteria and pathogenic oral bacteria", "assay": "Biofilm growth, prebiotic effect over the whole panel", "type": "cell-based", "details": "25 μmol/ml; 48 hours; threshold value of 1.6", "procedure": "(§1) Late exponential growth phase liquid cultures were prepared by transferring the respective bacterium from blood agar plates to BHI and overnight incubation at 37° C. in an anaerobic atmosphere for A. viscosus, V. parvula, F. nucleatum, P. gingivalis, P. intermedia, T. forsythia, A. naeslundii, and C. sputigena, and in a 5% CO2 environment for S. salivarius, S. sanguinis, S. mitis, A. actinomycetemcomitans, S. mutans, and S. gordonii. […] Additionally, for each bacterium tested, a background control, to correct for background staining, was added. This background control contained the bacterium tested and 0.03 weight % chlorhexidine, as an antiseptic. Plates were incubated as previously described. After 48 hrs the supernatant was removed from the wells of the plates. The wells were washed twice with 1×100 μL/PBS (phosphate buffered saline), fixed for 20 minutes with 96% vol. ethanol (96% vol. solution in water) and the biofilm retained at the bottom of the wells was stained with 1 weight % crystal violet (1 weight % solution in water). […] Quantification of the stained biofilm was performed by measuring the absorbance at 630 nm using a Multiskan Ascent microplate reader (Thermo Scientific)."}, "Veillonella parvula": {"test_system": "Veillonella parvula", "details": "V parvula, BHI", "protocol": "(§2) Late exponential growth phase liquid cultures were prepared by transferring the respective bacterium from blood agar plates to BHI and overnight incubation at 37° C. in an anaerobic atmosphere for A. viscosus, V. parvula, F. nucleatum, P. gingivalis, P. intermedia, T forsythia, A. naeslundii, and C. sputigena, and in a 5% CO2 environment for S. salivarius, S. sanguinis, S. mitis, A. actinomycetemcomitans, S. mutans, S. sobrinus and S. gordonii. Overnight cultures were transferred to BHI and adjusted to a concentration of 1×10^7 CFU/ml (colony forming units per ml) by measuring the optical density at 600 nm (OD600) (BioRad SmartSpec 3000). For each strain, 200 μl of the bacterial suspension was added to a 96-well plate containing 20 μl of the respective carboxylic acids. Final concentrations of the carboxylic acids were set to 5, 10, 20 and 25 μmol/ml. […] Plates were incubated as previously described.\n(§3) For each combination of bacterium/carboxylic acid, and for each of their respective controls (i.e. the particular bacterium in the nutritionally rich medium with no carboxylic acid), the optical density was measured at 630 nm (OD630) at 0 h, 24 h and 48 h (Thermo Scientific Multiskan Ascent). Additionally, the OD630 for combinations of bacterium/carboxylic acid grown in a 5% CO2 environment were also measured every hour between 0 h and 9 h.\n(§4) The experiment was carried out on three different days (thus providing 3 biological replicas) and on each day the experiment was carried out in quadruple (thus providing 4 technical replicas) for each combination of bacterium with carboxylic acid and for each control. For each day and for each combination, the average (mean) of the values obtained (as detailed above) for the four technical replicas was calculated to provide a single value for each combination on each day."}, "[2]": {"test_system": "Aggregatibacter actinomycetemcomitans", "details": "A actinomycetemcomitans, BHI", "protocol": "as §2, §3, §4"}, "[3]": {"test_system": "Aggregatibacter actinomycetemcomitans", "assay": "Biofilm growth assay in BHI, crystal violet", "type": "cell-based", "details": "A actinomycetemcomitans", "procedure": "as §1"}, "Fusobacterium nucleatum": {"test_system": "Fusobacterium nucleatum", "assay": "Biofilm growth assay in BHI, crystal violet", "type": "cell-based", "details": "F nucleatum", "procedure": "as §1"}, "Streptococcus salivarius": {"test_system": "Streptococcus salivarius", "assay": "Biofilm growth assay in BHI, crystal violet", "type": "cell-based", "details": "S salivarius", "procedure": "as §1"}, "Actinomyces viscosus": {"test_system": "Actinomyces viscosus", "assay": "Biofilm growth assay in BHI, crystal violet", "type": "cell-based", "details": "A viscosus", "procedure": "as §1"}, "Porphyromonas gingivalis": {"test_system": "Porphyromonas gingivalis", "assay": "Biofilm growth assay in BHI, crystal violet", "type": "cell-based", "details": "P gingivalis", "procedure": "as §1"}, "Prevotella intermedia": {"test_system": "Prevotella intermedia", "assay": "Biofilm growth assay in BHI, crystal violet", "type": "cell-based", "details": "P intermedia", "procedure": "as §1"}, "Actinomyces naeslundii": {"test_system": "Actinomyces naeslundii", "assay": "Biofilm growth assay in BHI, crystal violet", "type": "cell-based", "details": "A naeslundii", "procedure": "as §1"}, "Tannerella forsythia": {"test_system": "Tannerella forsythia", "assay": "Biofilm growth assay in BHI, crystal violet", "type": "cell-based", "details": "T forsythia", "procedure": "as §1"}},
  "note": "Read-outs that look alike come from different tables or passages of the source.",
  "data": [
    {"compound": "N[C@@H](CC(=O)O)C(=O)O", "note": "[L-aspartic acid]", "values": [
      {"measurement": "prebiotic effect (biofilm growth)", "setting": "[1]", "value": "exhibited prebiotic effects"},
      {"measurement": "extent of growth, maximal OD630 over 48 hr divided by maximal OD of control (control = 1)", "setting": "Veillonella parvula; 5 μmol/ml", "value": 1.0851},
      {"measurement": "extent of growth, maximal OD630 over 48 hr divided by maximal OD of control (control = 1)", "setting": "Veillonella parvula; 10 μmol/ml", "value": 1.1168},
      {"measurement": "extent of growth, maximal OD630 over 48 hr divided by maximal OD of control (control = 1)", "setting": "Veillonella parvula; 20 μmol/ml", "value": 1.1378},
      {"measurement": "extent of growth, maximal OD630 over 48 hr divided by maximal OD of control (control = 1)", "setting": "Veillonella parvula; 25 μmol/ml", "value": 1.1498},
      {"measurement": "extent of growth, maximal OD630 over 48 hr divided by maximal OD of control (control = 1)", "setting": "[2]; 5 μmol/ml", "value": 0.7612},
      {"measurement": "extent of growth, maximal OD630 over 48 hr divided by maximal OD of control (control = 1)", "setting": "[2]; 10 μmol/ml", "value": 0.7493},
      {"measurement": "extent of growth, maximal OD630 over 48 hr divided by maximal OD of control (control = 1)", "setting": "[2]; 20 μmol/ml", "value": 0.6806},
      {"measurement": "extent of growth, maximal OD630 over 48 hr divided by maximal OD of control (control = 1)", "setting": "[2]; 25 μmol/ml", "value": 0.6885},
      {"measurement": "biofilm growth, OD at 630 nm (crystal violet) at 48 hrs divided by OD of control (control = 1)", "setting": "[3]; 5 μmol/ml", "value": 0.6182},
      {"measurement": "biofilm growth, OD at 630 nm (crystal violet) at 48 hrs divided by OD of control (control = 1)", "setting": "[3]; 10 μmol/ml", "value": 0.5044},
      {"measurement": "biofilm growth, OD at 630 nm (crystal violet) at 48 hrs divided by OD of control (control = 1)", "setting": "[3]; 20 μmol/ml", "value": 0.4857},
      {"measurement": "biofilm growth, OD at 630 nm (crystal violet) at 48 hrs divided by OD of control (control = 1)", "setting": "[3]; 25 μmol/ml", "value": 0.5553},
      {"measurement": "biofilm growth, OD at 630 nm (crystal violet) at 48 hrs divided by OD of control (control = 1)", "setting": "Fusobacterium nucleatum; 5 μmol/ml", "value": 1.2145},
      {"measurement": "biofilm growth, OD at 630 nm (crystal violet) at 48 hrs divided by OD of control (control = 1)", "setting": "Fusobacterium nucleatum; 10 μmol/ml", "value": 0.9710},
      {"measurement": "biofilm growth, OD at 630 nm (crystal violet) at 48 hrs divided by OD of control (control = 1)", "setting": "Fusobacterium nucleatum; 20 μmol/ml", "value": 0.9621},
      {"measurement": "biofilm growth, OD at 630 nm (crystal violet) at 48 hrs divided by OD of control (control = 1)", "setting": "Fusobacterium nucleatum; 25 μmol/ml", "value": 0.8549},
      {"measurement": "biofilm growth, OD at 630 nm (crystal violet) at 48 hrs divided by OD of control (control = 1)", "setting": "Streptococcus salivarius; 5 μmol/ml", "value": 1.4152},
      {"measurement": "biofilm growth, OD at 630 nm (crystal violet) at 48 hrs divided by OD of control (control = 1)", "setting": "Streptococcus salivarius; 10 μmol/ml", "value": 1.9207},
      {"measurement": "biofilm growth, OD at 630 nm (crystal violet) at 48 hrs divided by OD of control (control = 1)", "setting": "Streptococcus salivarius; 20 μmol/ml", "value": 2.4799},
      {"measurement": "biofilm growth, OD at 630 nm (crystal violet) at 48 hrs divided by OD of control (control = 1)", "setting": "Streptococcus salivarius; 25 μmol/ml", "value": 3.0682},
      {"measurement": "biofilm growth, OD at 630 nm (crystal violet) at 48 hrs divided by OD of control (control = 1)", "setting": "Actinomyces viscosus; 5 μmol/ml", "value": 0.5576},
      {"measurement": "biofilm growth, OD at 630 nm (crystal violet) at 48 hrs divided by OD of control (control = 1)", "setting": "Actinomyces viscosus; 10 μmol/ml", "value": 0.5650},
      {"measurement": "biofilm growth, OD at 630 nm (crystal violet) at 48 hrs divided by OD of control (control = 1)", "setting": "Actinomyces viscosus; 20 μmol/ml", "value": 0.5834},
      {"measurement": "biofilm growth, OD at 630 nm (crystal violet) at 48 hrs divided by OD of control (control = 1)", "setting": "Actinomyces viscosus; 25 μmol/ml", "value": 0.5289},
      {"measurement": "biofilm growth, OD at 630 nm (crystal violet) at 48 hrs divided by OD of control (control = 1)", "setting": "Porphyromonas gingivalis; 5 μmol/ml", "value": 0.9713},
      {"measurement": "biofilm growth, OD at 630 nm (crystal violet) at 48 hrs divided by OD of control (control = 1)", "setting": "Porphyromonas gingivalis; 10 μmol/ml", "value": 0.9936},
      {"measurement": "biofilm growth, OD at 630 nm (crystal violet) at 48 hrs divided by OD of control (control = 1)", "setting": "Porphyromonas gingivalis; 20 μmol/ml", "value": 1.0779},
      {"measurement": "biofilm growth, OD at 630 nm (crystal violet) at 48 hrs divided by OD of control (control = 1)", "setting": "Porphyromonas gingivalis; 25 μmol/ml", "value": 0.9307},
      {"measurement": "biofilm growth, OD at 630 nm (crystal violet) at 48 hrs divided by OD of control (control = 1)", "setting": "Prevotella intermedia; 5 μmol/ml", "value": 1.4322},
      {"measurement": "biofilm growth, OD at 630 nm (crystal violet) at 48 hrs divided by OD of control (control = 1)", "setting": "Prevotella intermedia; 10 μmol/ml", "value": 1.6018},
      {"measurement": "biofilm growth, OD at 630 nm (crystal violet) at 48 hrs divided by OD of control (control = 1)", "setting": "Prevotella intermedia; 20 μmol/ml", "value": 1.6295},
      {"measurement": "biofilm growth, OD at 630 nm (crystal violet) at 48 hrs divided by OD of control (control = 1)", "setting": "Prevotella intermedia; 25 μmol/ml", "value": 1.5442},
      {"measurement": "biofilm growth, OD at 630 nm (crystal violet) at 48 hrs divided by OD of control (control = 1)", "setting": "Actinomyces naeslundii; 5 μmol/ml", "value": 1.1735},
      {"measurement": "biofilm growth, OD at 630 nm (crystal violet) at 48 hrs divided by OD of control (control = 1)", "setting": "Actinomyces naeslundii; 10 μmol/ml", "value": 1.2585},
      {"measurement": "biofilm growth, OD at 630 nm (crystal violet) at 48 hrs divided by OD of control (control = 1)", "setting": "Actinomyces naeslundii; 20 μmol/ml", "value": 1.2309},
      {"measurement": "biofilm growth, OD at 630 nm (crystal violet) at 48 hrs divided by OD of control (control = 1)", "setting": "Actinomyces naeslundii; 25 μmol/ml", "value": 1.1175},
      {"measurement": "biofilm growth, OD at 630 nm (crystal violet) at 48 hrs divided by OD of control (control = 1)", "setting": "Tannerella forsythia; 5 μmol/ml", "value": 1.0369},
      {"measurement": "biofilm growth, OD at 630 nm (crystal violet) at 48 hrs divided by OD of control (control = 1)", "setting": "Tannerella forsythia; 10 μmol/ml", "value": 0.9131}
    ]}
  ]
}
